{
  "source": "patent US7790921B2",
  "about": "(Biolink Life Sciences, Inc., priority 2007, dated 2010)",
  "key": {"deacetylase": {"test_system": "deacetylase", "settings": "dose between 20 and 40 mg/kg, patients with cervical cancer; cited from earlier work"}, "[1]": {"settings": "literature; cited from earlier work"}, "[2]": {"test_system": "patients with major depressive illness, bipolar disorder, or schizoaffective disorder", "settings": "cited from earlier work"}, "HIV-infected individuals": {"test_system": "HIV-infected individuals", "settings": "250 mg twice daily, 10 weeks; cited from earlier work"}, "[3]": {"experiment": "Hygroscopicity and storage stability of the solid", "type": "physicochemical"}, "[4]": {"experiment": "Solubility of lithium valproate in water / aqueous solutions"}, "Solubility in methanol": {"experiment": "Solubility in methanol", "settings": "product of Examples 2 and 3"}, "[5]": {"experiment": "Solubility in simulated gastric fluid USP", "type": "physicochemical"}, "[6]": {"experiment": "Solubility in simulated intestinal fluid USP", "type": "physicochemical"}, "[7]": {"settings": "mean duration of at least 1 year of administration"}},
  "note": "Entries after “also recorded” stand apart in the source; their conditions may differ. Where two headings read alike, the source gives them in different places.",
  "data": [
    {"compound": "2-propylpentanoic acid magnesium salt [magnesium valproate]", "values": [
      {"measurement": "effect on deacetylase activity in tumor tissues", "setting": "deacetylase", "result": "inhibits deacetylase activity"}
    ]},
    {"compound": "CCCC(CCC)C(=O)[O-].[Na+]", "note": "[Sodium valproate]", "values": [
      {"measurement": "hygroscopicity", "setting": "[1]", "result": "hygroscopic"}
    ]},
    {"compound": "CCCC(CCC)C(=O)O", "note": "[Valproic acid, 2-propylpentanoic acid]", "values": [
      {"measurement": "mean change in GAS ratings", "setting": "[2]; bipolar and schizoaffective patients, average of 11 to 14 months of treatment", "result": 35.0},
      {"measurement": "patients with improved mean GAS scores, bipolar disorder", "setting": "[2]; [7]", "result": "12 of 12"},
      {"measurement": "patients with improved mean GAS scores, depressed patients", "setting": "[2]; [7]", "result": "7 of 9"},
      {"measurement": "patients with improved mean GAS scores, schizoaffective states", "setting": "[2]; [7]", "result": "11 of 14"},
      {"measurement": "safety and tolerability", "setting": "HIV-infected individuals", "result": "safe and well tolerated"},
      {"measurement": "solubility in water", "setting": "[1]", "result": "very slightly soluble"}
    ]},
    {"compound": "CCCC(CCC)C(=O)[O-].[Li+]", "note": "[lithium valproate]", "values": [
      {"measurement": "hygroscopicity", "setting": "[3]", "result": "not hygroscopic or deliquescent; also recorded: non-hygroscopic"},
      {"measurement": "stability during storage", "setting": "[3]", "result": "stable during storage"},
      {"measurement": "solubility of lithium valproate in water", "setting": "[4]; portions added to 1 mL water until undissolved", "result": "about 250 mg of lithium valproate per mL of water"},
      {"measurement": "solubility in water", "setting": "[4]; product of Examples 2 and 3", "result": "very soluble"},
      {"measurement": "pH of aqueous solutions", "setting": "[4]; water or aqueous solutions", "result": "near neutral pH"},
      {"measurement": "solubility in methanol", "setting": "Solubility in methanol", "result": "very soluble"},
      {"measurement": "solubility in simulated gastric fluid USP", "setting": "[5]", "result": "soluble"},
      {"measurement": "solubility in simulated intestinal fluid USP", "setting": "[6]", "result": "soluble"}
    ]},
    {"compound": "CCCC(CCC)C(=O)O", "note": "[divalproex sodium]", "values": [
      {"measurement": "hygroscopicity", "setting": "[1]", "result": "not hygroscopic"}
    ]}
  ]
}
